Laboratory results: ChEMBL document CHEMBL3865816, “Design, synthesis and biological evaluation of novel azaspiro analogs of linezolid as antibacterial and antitubercular agents” (Eur J Med Chem, 2016)
In brackets after ≈: the same amount, converted by molar mass.

What was measured:
Format in all cases: functional
[1] = test system: Mycobacterium tuberculosis variant bovis; assay: Antitubercular activity against dormant stage Mycobacterium bovis BCG ATCC 35734 measured after 12 days by nitrate reductase assay; details: ATCC 35734, 288 h
[2] = test system: Mycobacterium tuberculosis variant bovis; assay: Antitubercular activity against dormant stage Mycobacterium bovis BCG ATCC 35734 at 3 ug/ml measured after 12 days by nitrate reductase assay; details: ATCC 35734, 288 h
[3] = test system: Mycobacterium tuberculosis variant bovis; assay: Antitubercular activity against active stage Mycobacterium bovis BCG ATCC 35734 measured after 8 days by nitrate reductase assay; details: ATCC 35734, 192 h
[4] = test system: Mycobacterium tuberculosis variant bovis; assay: Antitubercular activity against dormant stage Mycobacterium bovis BCG ATCC 35734 at 10 ug/ml measured after 12 days by nitrate reductase assay; details: ATCC 35734, 288 h
[5] = test system: Mycobacterium tuberculosis variant bovis; assay: Antitubercular activity against dormant stage Mycobacterium bovis BCG ATCC 35734 at 30 ug/ml measured after 12 days by nitrate reductase assay; details: ATCC 35734, 288 h

Structure (SMILES)	IC50 [1] [µg/mL]	MIC [1] [µg/mL]	inhibition at 3 µg/mL [2] [%]	IC50 [3] [µg/mL]	MIC [3] [µg/mL]	inhibition at 10 µg/mL [4] [%]	inhibition at 30 µg/mL [5] [%]
O=C(NC[C@H]1CN(c2ccc(N3CC4(COC4)C3)c(F)c2)C(=O)O1)c1ccno1	4.83 (≈ 12 µM)	10.1 (≈ 25.2 µM)	66.9	4.11 (≈ 10.2 µM)	9.82 (≈ 24.4 µM)	86.1	89
OC1(CNc2ccc(N3CCOCC3)c(F)c2)CCN(Cc2ccccc2)C1 (centres undefined)	> 100	> 100	-6.7			-6.66	-1.83
O=C1O[C@@H](CNS(=O)(=O)c2cc(Cl)cc(Cl)c2)CN1c1ccc(N2CC3(COC3)C2)c(F)c1	> 100	> 100	25.9			-2.28	3.87
O=C1O[C@@H](CNC(=S)Nc2cccc(C(F)(F)F)c2)CN1c1ccc(N2CC3(COC3)C2)c(F)c1	> 100	> 100	29.6			83.9	94.8
CC1(C)[C@@]2(C)CC[C@]1(C(=O)NC[C@H]1CN(c3ccc(N4CC5(COC5)C4)c(F)c3)C(=O)O1)OC2=O	> 100	> 100	-35.3			3.86	8.27
CC(C)(C)NC(=S)NC[C@H]1CN(c2ccc(N3CC4(COC4)C3)c(F)c2)C(=O)O1	> 100	> 100	-9.84			-3.89	33.6
CC(=O)NC[C@H]1CN(c2ccc(N3CC4(COC4)C3)c(F)c2)C(=O)O1	0.81 (≈ 2.32 µM)	1.67 (≈ 4.78 µM)	99.1	0.79 (≈ 2.26 µM)	1.83 (≈ 5.24 µM)	100	95.9
O=C(NC[C@H]1CN(c2ccc(N3CC4(COC4)C3)c(F)c2)C(=O)O1)Nc1ccc(Cl)cc1	> 100	> 100	-5.78			-3.58	28.6
CC(=O)N1CCC2(C1)CN(c1ccc(N3CCOCC3)c(F)c1)C(=O)O2 (centres undefined)	> 100	> 100	-2.09			-3.02	8.79
O=C1O[C@@H](CNC(=S)Nc2ccc([N+](=O)[O-])cc2)CN1c1ccc(N2CC3(COC3)C2)c(F)c1	> 100	> 100	39.9			-15.8	-6.89
CC(=O)OCC(=O)NC[C@H]1CN(c2ccc(N3CC4(COC4)C3)c(F)c2)C(=O)O1	3.05 (≈ 7.49 µM)	5.77 (≈ 14.2 µM)	99.2	3.35 (≈ 8.22 µM)	6.32 (≈ 15.5 µM)	99.6	99.4
O=C1OC2(CCNC2)CN1c1ccc(N2CCOCC2)c(F)c1 (centres undefined)	> 100	> 100	-3.11			-16.8	-7.3
O=C1OC2(CCN(Cc3ccccc3)C2)CN1c1ccc(N2CCOCC2)c(F)c1 (centres undefined)	> 100	> 100	-11.8			-9.32	-11.2
COCC(=O)NC[C@H]1CN(c2ccc(N3CC4(COC4)C3)c(F)c2)C(=O)O1	> 100	> 100	74.5			97.2	98.6
O=C1O[C@@H](CNS(=O)(=O)c2cccc(C(F)(F)F)c2)CN1c1ccc(N2CC3(COC3)C2)c(F)c1	> 100	> 100	-2.23			-6.57	-5.29
COc1ccc(NC(=S)NC[C@H]2CN(c3ccc(N4CC5(COC5)C4)c(F)c3)C(=O)O2)cc1	> 100	> 100	18.9			63	73.2
CC(=O)NC[C@H]1CN(c2ccc(C3=C[C@H]4CC[C@@H](C3)N4C(=O)OC(C)(C)C)c(F)c2)C(=O)O1	5.82 (≈ 12.7 µM)	23.1 (≈ 50.4 µM)	57.9	4.35 (≈ 9.47 µM)	31.2 (≈ 67.8 µM)	89.3	96.3
N#Cc1ccc(NC(=S)NC[C@H]2CN(c3ccc(N4CC5(COC5)C4)c(F)c3)C(=O)O2)cc1	> 100	> 100	97.4			97.2	88.1
O=C1O[C@@H](CNC(=O)C23CC4CC(CC(C4)C2)C3)CN1c1ccc(N2CC3(COC3)C2)c(F)c1	> 100	> 100	11.8			44.1	62.6
O=C1O[C@@H](CNS(=O)(=O)c2cc([N+](=O)[O-])ccc2Cl)CN1c1ccc(N2CC3(COC3)C2)c(F)c1	> 100	> 100	11.1			11.6	15
O=C(NC[C@H]1CN(c2ccc(N3CC4(COC4)C3)c(F)c2)C(=O)O1)c1cccnc1	> 100	> 100	76.2			101	102
O=C1O[C@@H](CNC(=S)Nc2ccc(Cl)cc2)CN1c1ccc(N2CC3(COC3)C2)c(F)c1	> 100	> 100	-1.89			-10.1	-26.1
O=C1O[C@@H](CNC(=S)Nc2ccccc2F)CN1c1ccc(N2CC3(COC3)C2)c(F)c1	17.7 (≈ 38.4 µM)	61.2 (≈ 133 µM)	42.1	13.1 (≈ 28.4 µM)	44.5 (≈ 96.5 µM)	92.9	94.7
O=C1O[C@@H](CNS(=O)(=O)c2ccc(Cl)s2)CN1c1ccc(N2CC3(COC3)C2)c(F)c1	> 100	> 100	34.8			83.5	91.7
CC(=O)NC[C@H]1CN(c2ccc(N3CCOCC3)c(F)c2)C(=O)O1 [LINEZOLID]	0.31 (≈ 0.919 µM)	0.43 (≈ 1.27 µM)	101	0.029 (≈ 0.086 µM)	0.42 (≈ 1.24 µM)	101	101
O=C(NC[C@H]1CN(c2ccc(N3CC4(COC4)C3)c(F)c2)C(=O)O1)c1ccc(C(F)(F)F)cc1	> 100	> 100	65			8.62	73.1
NC[C@H]1CN(c2ccc(N3CC4(COC4)C3)c(F)c2)C(=O)O1	17.3 (≈ 56.4 µM)	24.4 (≈ 79.2 µM)	-0.29	15.7 (≈ 51.2 µM)	29.5 (≈ 96 µM)	52	89.4
CC(C)NC(=S)NC[C@H]1CN(c2ccc(N3CC4(COC4)C3)c(F)c2)C(=O)O1	> 100	> 100	21.9			74.6	94.4
